In brackets after ≈: the same amount, converted by molar mass.
System: M17-SYNwt cells
Assay: α-synuclein cytotoxicity assay (LDH leakage from paraquat-treated α-synuclein over-expressing neuroblastoma cells)
Assay type: cell-based, human
Settings: paraquat 32 mM, 40 hours, LDH release; for EC50: Homo sapiens, Neuroblastoma cell; for EC50 / EC50 (µg/mL): 10 point curves in duplicate; for %I: percent inhibition of synuclein cytotoxicity at most effective concentration of test compound, relative to untreated paraquat cells
Experimental: Subsequently, LDH activity was determined using Promega Cytotox 96 NonRadioactive cytotoxicity assay, (Cat. G1780) according the supplier's instructions.
This corresponds to the following equation: (LDHreleaseoftreatedparaquatcellsatnon-effectiveconcentrationoftestcmpd)−(LDHreleaseoftreatedparaquatcellsatmosteffectiveconcentrationoftestcmpd)/(LDHreleaseofuntreatedparaquatcells)−(LDHreleasecontrolcells)*100% [formula]
1,2,4-thiadazole compounds made according to the methods described herein were screened for activity using the α-synuclein cytotoxicity assay as described above. Dose responses were carried out on all compounds found to be active (10 point curves in duplicate).

Compound | EC50 [µg/mL] | %I [%] | EC50 (µg/mL)
O=S(=O)(c1ccccc1)N1CCN(c2nc(Cc3ccc(F)cc3)ns2)CC1 [Compound 198, 1-phenylsulfonyl-4-[3-(4-fluoro-benzyl)-1,2,4-thiadiazol-5-yl]piperazine] | 0.146 (≈ 0.349 µM) | 25 | –
1-(3-methylbenzoyl)-4-[3-(4-methylbenzyl)-1,2,4-thiadiazol-5-yl]-2-methylpiperazine [Compound 144] | – | 64 | 0,56 µg/mL
Cc1ccc(Cc2nsc(N3CCN(S(=O)(=O)c4ccc(C(C)(C)C)cc4)C(C)C3)n2)cc1 (stereo not drawn) [Compound 42, 1-[4-tert-butylphenylsulfonyl]-4-[3-(4-methylbenzyl)-1,2,4-thiadiazol-5-yl]-2-methylpiperazine] | 0.87 (≈ 1.79 µM) | 33 | –
Cc1ccc(C(=O)N2CCCN(c3nc(Cc4ccc(F)cc4)ns3)CC2)cc1 [Compound 190, 1-(4-methylbenzoyl)-4-[3-(4-fluorobenzyt)-1,2,4-thiadiazol-5-yl]-1,4-diazepane] | 2.77 (≈ 6.75 µM) | 87 | –
O=C(Cc1ccc(F)cc1)NCCN1CCN(c2nc(Cc3ccc(F)cc3)ns2)CC1 [Compound 107, 2-(4-fluorophenyl)-N-{2-[4-[3-(4-fluorobenzyl)-1,2,4-thiadiazol-5-yl]piperazin-1-yl]ethyl}acetamide] | 0.26 (≈ 0.568 µM) | 80 | –
CCc1ccc(NC(=O)N2CCN(c3nc(Cc4ccc(F)cc4)ns3)CC2C)cc1 (stereo not drawn) [Compound 11, N-(4-ethylphenyl)-4-[3-(4-fluorobenzyl)-1,2,4-thiadiazol-5-yl]-2-methylpiperazine-1-carboxamide] | 0.69 (≈ 1.57 µM) | 73 | –
CC1CN(c2nc(Cc3ccc(F)cc3)ns2)CCN1C(=O)c1ccc(F)cc1 (stereo not drawn) [Compound 127, 1-(4-fluorobenzoyl)-4-[3-(4-fluorobenzyl)-1,2,4-thiadiazol-5-yl]-2-methylpiperazine] | 0.23 (≈ 0.555 µM) | 108 | –
COc1ccc(S(=O)(=O)N2CCN(c3nc(Cc4ccc(F)cc4)ns3)CC2)cc1 [Compound 32, 1-[4-methoxyphenylsulfonyl]-4-[3-(4-fluorobenzyl)-1,2,4-thiadiazol-5-yl]piperazine] | 0.0024 (≈ 0.00535 µM) | 78 | –
O=C(c1cc(Cl)cc(Cl)c1)N1CCN(c2nc(Cc3ccc(F)cc3)ns2)CC1 [Compound 137, 1-(3,5-dichlorobenzoyl)-4-[3-(4-fluorobenzyl)-1,2,4-thiadiazol-5-yl]piperazine] | 0.35 (≈ 0.775 µM) | 68 | –
O=C(Nc1ccccc1F)N1CCN(c2nc(Cc3ccc(F)cc3)ns2)CC1 [Compound 16, N-(2-fluorophenyl)-4-[3-(4-fluorobenzyl)-1,2,4-thiadiazol-5-yl]piperazine-1-carboxamide] | 5.68 (≈ 13.7 µM) | 72 | –
CC1CN(c2nc(Cc3ccc(F)cc3)ns2)CCN1S(=O)(=O)c1ccc(C(C)(C)C)cc1 (stereo not drawn) [Compound 54, 1-[4-tert-butylphenylsulfonyl]-4-[3-(4-fluorobenzyl)-1,2,4-thiadiazol-5-yl]-2-methylpiperazine] | – | 60 | –
Cc1ccc(Cc2nsc(N3CCN(S(=O)(=O)c4cccc5cccnc45)CC3)n2)cc1 [Compound 70, 1-[quinoline-8-sulfonyl]-4-[3-(4-methylbenzyl)-1,2,4-thiadiazol-5-yl]piperazine] | – | 44 | –
O=C(Nc1ccccc1C(F)(F)F)N1CCN(c2nc(Cc3ccc(F)cc3)ns2)CC1 [Compound 17, N-(2-trifluoromethylphenyl)-4-[3-(4-fluorobenzyl)-1,2,4-thiadiazol-5-yl]piperazine-1-carboxamide] | – | 46 | –
1-(phenylprop-2-ensulfonyl)-4-[3-(4-methylbenzyl)-1,2,4-thiadiazol-5-yl]-2-methylpiperazine [Compound 79] | – | 53 | 0,17 µg/mL
CCc1ccc(C(=O)N2CCN(c3nc(Cc4ccc(Cl)cc4)ns3)CC2)cc1 [Compound 165, 1-(4-ethylbenzoyl)-4-[3-(4-chlorobenzyl)-1,2,4-thiadiazol-5-yl]piperazine] | – | 133 | –
1-(4-methoxybenzoyl)-4-[3-(4-methylbenzyl)-1,2,4-thiadiazol-5-yl]-2-methylpiperazine [Compound 130] | – | 118 | 0,25 µg/mL
COc1ccc(S(=O)(=O)N2CCN(c3nc(Cc4ccc(C)cc4)ns3)CC2)cc1 [Compound 68, 1-[4-methoxyphenylsulfonyl]-4-[3-(4-methylbenzyl)-1,2,4-thiadiazol-5-yl]piperazine] | 0.000255 (≈ 0.000574 µM) | 53 | –
1-[3-trifluorophenylsulfonyl]-4-[3-(4-fluorobenzyl)-1,2,4-thiadiazol-5-yl]-2-methylpiperazine [Compound 46] | – | 64 | 1,34 µg/mL
O=C(NCCN1CCN(c2nc(Cc3ccc(F)cc3)ns2)CC1)c1cccc(F)c1 [Compound 105, 3-fluoro-N-{2-[4-[3-(4-fluorobenzyl)-1,2,4-thiadiazol-5-yl]piperazin-1-yl]ethyl}benzamide] | – | 115 | –
CC1CN(c2nc(Cc3ccc(F)cc3)ns2)CCN1C(=O)c1ccc([N+](=O)[O-])cc1 (stereo not drawn) [Compound 184, 1-(4-nitrobenzoyl)-4-[3-(4-fluorobenzyl)-1,2,4-thiadiazol-5-yl]-2-methylpiperazine] | – | 52 | –
Cc1ccc(Cc2nsc(N3CCN(C(=O)c4cccc(F)c4)C(C)C3)n2)cc1 (stereo not drawn) [Compound 156, 1-(3-fluorobenzoyl)-4-[3-(4-methylbenzyl)-1,2,4-thiadiazol-5-yl]-2-methylpiperazine] | 1.67 (≈ 4.07 µM) | 86 | –
CC1CN(c2nc(Cc3ccc(F)cc3)ns2)CCN1C(=O)CCc1ccccc1 (stereo not drawn) [Compound 89, 1-(3-phenylpropanoyl)-4-[3-(4-fluorobenzyl)-1,2,4-thiadiazol-5-yl]-2-methylpiperazine] | 0.6 (≈ 1.41 µM) | 86 | –
O=S(=O)(Cc1ccccc1)N1CCN(c2nc(Cc3ccc(Cl)cc3)ns2)CC1 [Compound 76, 1-(benzylsulfonyl)-4-[3-(4-chlorobenzyl)-1,2,4-thiadiazol-5-yl]piperazine] | – | 40 | –
O=C(Nc1ccccc1)N1CCN(c2nc(Cc3ccc(F)cc3)ns2)CC1 [Compound 13, N-phenyl-4-[3-(4-fluorobenzyl)-1,2,4-thiadiazol-5-yl]piperazine-1-carboxamide] | 1.23 (≈ 3.09 µM) | 71 | –
COc1ccc(S(=O)(=O)N2CCN(c3nc(Cc4cccc(F)c4)ns3)CC2)cc1 [Compound 193, 1-[4-methoxyphenylsulfonyl]-4-[3-(3-fluoro-benzyl)-1,2,4-thiadiazol-5-yl]piperazine] | 0.0048 (≈ 0.0107 µM) | 68 | –
COc1ccc(S(=O)(=O)N2CCN(c3nc(Cc4ccccc4)ns3)CC2)cc1 [Compound 199, 1-[4-methoxyphenylsulfonyl]-4-[3-benzyl-1,2,4-thiadiazol-5-yl]piperazine] | 0.0016 (≈ 0.00372 µM) | 38 | –
